# Read-outs that look alike come from different tables or passages of the source.
# What was measured:
# human BCRP = target: T1, human BCRP (Homo sapiens, UniProt Q9UNQ0); assay: in vitro
# T1 sequence (Q9UNQ0 1-655): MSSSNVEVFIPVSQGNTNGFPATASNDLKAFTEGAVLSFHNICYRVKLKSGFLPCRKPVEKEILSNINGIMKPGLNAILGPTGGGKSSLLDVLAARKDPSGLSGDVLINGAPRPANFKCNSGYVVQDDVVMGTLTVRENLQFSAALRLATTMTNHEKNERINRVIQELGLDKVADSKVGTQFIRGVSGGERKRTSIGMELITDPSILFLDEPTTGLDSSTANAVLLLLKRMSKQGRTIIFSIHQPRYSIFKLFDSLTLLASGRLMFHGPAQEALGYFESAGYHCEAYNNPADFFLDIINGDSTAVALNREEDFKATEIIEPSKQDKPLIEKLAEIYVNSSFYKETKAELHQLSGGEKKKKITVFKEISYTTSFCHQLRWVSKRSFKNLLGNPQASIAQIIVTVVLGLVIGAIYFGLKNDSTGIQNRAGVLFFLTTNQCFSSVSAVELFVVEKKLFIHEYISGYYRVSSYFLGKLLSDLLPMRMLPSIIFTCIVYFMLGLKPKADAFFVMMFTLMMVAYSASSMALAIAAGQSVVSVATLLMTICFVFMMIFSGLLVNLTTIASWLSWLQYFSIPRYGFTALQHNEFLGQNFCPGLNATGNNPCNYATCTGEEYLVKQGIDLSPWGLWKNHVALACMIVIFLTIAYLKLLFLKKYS
# human P-gp = target: T2, human P-gp (Homo sapiens, UniProt P08183); assay: substrate susceptibility on human P-gp, bidirectional transcellular transport, P-gp/LLC-PK1 cells; type: in vitro ADME
# T2 construct: expressed in transfected cells; host or cells: LLC-PK1 (porcine kidney) cells expressing human P-gp; mock/LLC-PK1 as control
# Protocol: (§1) Substrate susceptibility of Compound (1) on human P-gp. Time-dependence of the bidirectional transcellular transport of 1 μmol/L and 10 μmol/L Compound (1) across human P-gp/Lilly Laboratories Cell-Porcine Kidney 1 (LLC-PK1) cells and mock/LLC-PK1 cells was analyzed. Net flux ratios of some samples incubated with 1 μmol/L Compound (1) for 2 or 3 hours was not calculable as concentrations of these samples were below the lower limit of quantification. […] The net flux ratios of samples incubated with 10 μmol/L Compound (1) for 2, 3, and 4 hours were 1.4±0.4 1.7±0.3, and 1.5±0.2, respectively. The net flux ratios samples incubated with 10 μmol/L Compound (1) with 10 μmol/L zosuquidar for 2, 3, and 4 hours were 1.2±0.3, 1.2±0.1, and 1.1±0.1, respectively.
# P-gp = system: T3, P-gp; assay: as above; type: in vitro ADME; conditions: human, LLC-PK1, with zosuquidar 10 μmol/L, read-out: net flux ratio
# T3 construct: expressed in transfected cells; host or cells: LLC-PK1 (porcine kidney) cells expressing human P-gp; mock/LLC-PK1 as control
# Protocol: as §1
# [1] = plasma protein binding, equilibrium dialysis; type: in vitro ADME
# Protocol: Plasma protein binding of Compound (1). Plasma protein binding of Compound (1) in mice, rats, dogs, monkeys, and humans was determined using the equilibrium dialysis method.
# [2] = system: NCI-N87 human gastric carcinoma xenografts; assay: antitumor effect in nude mice bearing NCI-N87 xenografts; type: in vivo; conditions: 12.5 mg/kg/day orally once daily 14 days, Day 15
# Protocol: The antitumor effect of Compound (1) was evaluated in nude mice bearing HER2-overexpressing NCI-N87 human gastric carcinoma xenografts. Compound (1) dosing suspensions using 0.5% w/v hydroxypropyl methylcellulose (HPMC) as vehicle were prepared at 4 dose levels (3.1, 6.3, 12.5, and 25.0 mg/kg/day) and administered orally once daily for 14 days. In addition, the antitumor effect of poziotinib, which is a pan-ErbB inhibitor and currently under clinical development for the treatment of cancer with epidermal growth factor receptor containing HER2 exon 20 insertion mutations, was also evaluated using this model. Poziotinib was administered orally once daily for 14 days at 2 dose levels (0.5 or 1.0 mg/kg/day). The control group received 0.5% w/v HPMC once daily for 14 days.
# [3] = system: NCI-N87 tumor fragment #6, clone 3; assay: refractory T-DM1 monoclonal cell line model, comparison to DS-8201a; type: in vivo, male mice; conditions: for antitumor effect (tumor volume): 21 days
# Protocol: The obtained cell line was implanted into BALB/cAJcl-mu/nu male mice (8.0×10^6 cells in 100 μL of PBS/mouse, subcutaneous) for the efficacy test.
# The tumor volumes (TV, mm) and body weights of the mice were recorded.
# [4] = pharmacokinetics after single oral administration; type: in vivo, male nude mice; conditions: plasma; for AUC(0-t): male, nude, mouse, read-out: AUC0-24
# Protocol: Compound (1) was orally administered. The concentrations of Compound (1) were quantified using LC-MS/MS for the PK studies. ^13C-labeled Compound (1) was used as an internal standard.
# Pharmacokinetics in nude mice after single oral administration. Plasma concentration profiles and PK parameters of Compound (1) were determined in male nude mice following a single oral administration at doses of 6.25, 12.5, and 25 mg/kg (FIGS. 4A and 4B, and Table 4). The Cmax, AUClast, and AUC0-24 values increased in a dose dependent manner.
# [5] = system: refractory T-DM1 NCI-N87 tumor fragment #6; assay: refractory T-DM1 tumor fragment model, comparison to lapatinib and tucatinib; type: in vivo, male nude mice (BALB/cAJcl-nu/nu); conditions: for antitumor effect (tumor volume): 21 days
# Protocol: Cancer Sci. 2020 June; 111(6):2123-2131. The NCI-N87 tumor fragment #6 obtained from the above procedure was then passaged two times into male nude mice (BALB/cAJcl-nu/nu) subcutaneously before the efficacy test of Compound (1).
# The tumor volumes (TV, mnm^3) and body weights of the mice were recorded.
# T2 sequence (P08183 whole entry): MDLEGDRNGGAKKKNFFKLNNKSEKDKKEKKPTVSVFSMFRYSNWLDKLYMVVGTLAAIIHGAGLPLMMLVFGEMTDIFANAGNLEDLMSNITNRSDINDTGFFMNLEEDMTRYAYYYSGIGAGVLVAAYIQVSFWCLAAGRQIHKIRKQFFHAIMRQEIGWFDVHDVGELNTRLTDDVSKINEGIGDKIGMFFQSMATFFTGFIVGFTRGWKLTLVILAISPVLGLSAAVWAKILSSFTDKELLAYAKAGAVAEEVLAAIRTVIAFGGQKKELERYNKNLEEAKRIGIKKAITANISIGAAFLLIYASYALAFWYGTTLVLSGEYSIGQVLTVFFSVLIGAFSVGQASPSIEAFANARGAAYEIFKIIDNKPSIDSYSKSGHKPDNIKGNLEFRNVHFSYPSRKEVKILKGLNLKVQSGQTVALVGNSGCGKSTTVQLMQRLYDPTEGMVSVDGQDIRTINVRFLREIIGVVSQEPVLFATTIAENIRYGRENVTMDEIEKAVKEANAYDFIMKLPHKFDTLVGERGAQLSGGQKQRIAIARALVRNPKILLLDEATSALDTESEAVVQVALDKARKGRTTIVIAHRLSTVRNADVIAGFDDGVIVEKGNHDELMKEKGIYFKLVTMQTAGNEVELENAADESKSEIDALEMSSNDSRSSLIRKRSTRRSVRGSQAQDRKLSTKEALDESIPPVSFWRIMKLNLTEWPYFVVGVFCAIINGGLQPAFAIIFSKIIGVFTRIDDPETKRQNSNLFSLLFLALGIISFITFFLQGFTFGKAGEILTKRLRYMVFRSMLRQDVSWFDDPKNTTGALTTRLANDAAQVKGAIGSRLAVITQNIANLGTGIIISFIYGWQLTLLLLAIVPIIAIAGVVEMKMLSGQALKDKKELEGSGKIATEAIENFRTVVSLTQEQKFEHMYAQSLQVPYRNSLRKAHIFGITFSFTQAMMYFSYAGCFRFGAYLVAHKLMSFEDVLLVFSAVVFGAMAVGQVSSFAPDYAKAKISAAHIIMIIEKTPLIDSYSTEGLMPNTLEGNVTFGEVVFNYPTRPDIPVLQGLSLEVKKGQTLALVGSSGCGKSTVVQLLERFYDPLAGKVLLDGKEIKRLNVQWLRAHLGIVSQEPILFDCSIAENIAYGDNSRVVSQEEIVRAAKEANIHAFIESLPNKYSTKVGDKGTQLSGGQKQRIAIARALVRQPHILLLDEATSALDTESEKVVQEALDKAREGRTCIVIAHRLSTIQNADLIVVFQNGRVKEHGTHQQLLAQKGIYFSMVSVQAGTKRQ
smiles,measurement,setting,value
"C=CC(=O)N1C[C@H](n2c(C#CC3CC3)c(C(=O)N[C@H](C)c3ccccc3)c3c(N)ncnc32)C[C@@H]1C [Compound (1), 7-((3R,5S)-1-acryloyl-5-methylpyrrolidin-3-yl)-4-amino-6-(cyclopropylethynyl)-N—((R)-1-phenylethyl)-7H-pyrrolo[2,3-d]pyrimidine-5-carboxamide]","activity at 3 h, 0.01 μmol/L",human BCRP,114%
same,"activity at 3 h, 0.1 μmol/L",human BCRP,95%
same,"activity at 3 h, 0.5 μmol/L",human BCRP,54%
same,"activity at 3 h, 1 μmol/L",human BCRP,24%
same,"activity at 3 h, 5 μmol/L",human BCRP,10%
same,"activity at 3 h, 10 μmol/L",human BCRP,3%
same,net flux ratio,"human P-gp; 1 μmol/L Compound (1), 4 hours, without zosuquidar",4.7±0.7
same,net flux ratio,"human P-gp; 10 μmol/L Compound (1) with 10 μmol/L zosuquidar, 3 hours",1.2±0.1
same,net flux ratio,"human P-gp; 10 μmol/L Compound (1), 2 hours",1.4±0.4
same,net flux ratio,"human P-gp; 10 μmol/L Compound (1), 3 hours",1.7±0.3
same,net flux ratio,"human P-gp; 10 μmol/L Compound (1), 4 hours",1.5±0.2
same,substrate susceptibility on human P-gp,human P-gp; transport saturable by increase of concentration,substrate of P-gp
same,"efflux ratio at 4 h, 1 μmol/L","P-gp; 1 μmol/L Compound (1), 4 hours, with 10 μmol/L zosuquidar",1.5 ± 0.6
same,"efflux ratio at 2 h, 10 μmol/L","P-gp; 10 μmol/L Compound (1) with 10 μmol/L zosuquidar, 2 hours",1.2 ± 0.3
same,"efflux ratio at 4 h, 10 μmol/L","P-gp; 10 μmol/L Compound (1) with 10 μmol/L zosuquidar, 4 hours",1.1 ± 0.1
same,fraction unbound,"[1]; dog, dogs, 0.2, 2, and 20 μmol/L",0.02 to 0.026
same,fraction unbound,"[1]; human, humans, 0.2, 2, and 20 μmol/L",0.004 to 0.006
same,fraction unbound,"[1]; monkey, monkeys, 0.2, 2, and 20 μmol/L",0.015 to 0.02
same,fraction unbound,"[1]; mouse, mice, 0.2, 2, and 20 μmol/L",0.005 to 0.012
same,fraction unbound,"[1]; rat, rats, 0.2, 2, and 20 μmol/L",0.011 to 0.027
same,T/C ratio of the mean tumor volumes,[2],7.3%
same,antitumor effect (tumor volume),[3]; 12.5 mg/kg/day PO once per day,arresting tumor growth
same,antitumor effect (tumor volume),[3]; 20 mg/kg/day PO once per day,inducing tumor regression
same,body weight loss,[3]; 12.5 or 20 mg/kg,did not cause body weight loss
same,AUC(0-t),[4]; single oral 6.25 mg/kg,822 ± 208 ng·h/mL
same,AUC(0-t),[4]; single oral 25 mg/kg,5230 ± 620 ng·h/mL
same,AUClast,[4]; single oral 6.25 mg/kg,795 ± 229 ng·h/mL
same,Cmax,[4]; single oral 6.25 mg/kg,601 ± 111 ng/mL
same,Tmax,[4]; single oral 6.25 mg/kg,19.8 ± 8.4 min
same,AUC0-24,[4]; single oral 12.5 mg/kg,2010 ± 230 ng·h/mL
same,AUClast,[4]; single oral 12.5 mg/kg,2010 ± 230 ng·h/mL
same,Cmax,[4]; single oral 12.5 mg/kg,1590 ± 220 ng/mL
same,Tmax,[4]; single oral 12.5 mg/kg,15 ± 0 min
same,AUClast,[4]; single oral 25 mg/kg,5080 ± 820 ng·h/mL
same,Cmax,[4]; single oral 25 mg/kg,3580 ± 190 ng/mL
same,Tmax,[4]; single oral 25 mg/kg,15 ± 0 min
same,antitumor effect (tumor volume),[5]; 12.5 mg/kg/day PO once per day,arresting tumor growth
same,antitumor effect (tumor volume),[5]; 20 mg/kg/day PO once per day,inducing tumor regression
same,antitumor effect compared to lapatinib (50 mg/kg b.i.d.) or tucatinib (75 mg/kg b.i.d.),[5]; 12.5 and 20 mg/kg/day PO,superior antitumor effects
same,body weight loss,[5]; 12.5 or 20 mg/kg,did not cause body weight loss

# Reference: US20240238300A1, “TREATMENT METHODS FOR SUBJECTS WITH CANCER HAVING AN ABERRATION IN EGFR AND/OR HER2” (TAIHO PHARMACEUTICAL CO., LTD., priority 2021, published 2024)
